# Results taken from patent US11723947B2, “Anti-senescence compounds and uses thereof” (Erasmus University Medical Center Rotterdam, priority 2015, dated 2023).
# Square brackets hold non-standard residues; d marks the D form. Ends that are not written are not given here.
# Experiments:
# LOX-IMVI = experiment: Viability of LOX-IMVI metastatic melanoma cells; format: cell-based, human
# Procedure: Assay as in FIG. 2C with increasing doses of Vemurafenib. […] LOX-IMVI however is resistant. […] Experiment as in FIG. 2C, but with LOX-IMVI treated with FOXO4 DRI alone, the BRAF^V600E-inhitors Vemurafenib or Dabrafenib, or the MEK inhibitor Trametinib alone, or a combination hereof. […] LOX-IMVI cells were incubated with FOXO4 DRI or Vemurafenib alone or in combination. The cells were co-treated with the pan-caspase inhibitor QVD-OPH to block caspase-dependent cell death. After 3 days the media was refreshed with new QVD-OPH containing media, but in the absence of FOXO4 DRI or Vemurafenib. At day 5 after initial treatment the cells were fixed and stained for Cytochrome C. Cytochrome C is present in the mitochondria in viable cells and is released into the cytosol when apoptosis is activated. Plotted are the number of cells showing release of Cytochrome C. […] LOX-IMVI were assessed for viability in the presence of FOXO4 DRI, the oxidative stress inhibitor N-Acetyl Cysteine (NAC) or the oxidative stressor H2O2. […]
# LOX-IMVI cells were plated for (i) cell viability assay as in example 1 by AqueousOne MTT assay, (ii) apoptosis by Cytochrome C release, (iii) longitudinal cell density assay, and incubated with the FOXO4 DRI peptide, Vemurafenib/Trametinib, or their combination, respectively. […] The % of cells with Cytochrome C release was scored.
# [1] = tested on: Senescent and control IMR90
# Procedure: The selectivity index (S.I.) for the EC50 values was determined after […] (GraphPad Prism) of the curves. […] Real-time cell density was measured using an xCELLigence detection system (ACEA Biosciences). Prior to the start of the measurement 50 μL DMEM 10% FCS was added to each well of an E-plate view 16 (Roche) to determine background signal. Non-senescent (2000 cells per well) and senescent (5000 cells/well) IMR90 fibroblasts were then plated in 150 μl medium. 16 hours later the E-plate was placed in the xCELLigence reader and the cell density was recorded every 30 minutes. […] Measurements continued for the indicated time-points. […] Experiment as in FIG. 2C, but with the indicated peptides. […] Cells were plated in 4-well Poly-L-Lysine coated glass bottom 35 mm dishes (D141410; Matsumi, Japan) and incubated with NucView488 Caspase-3 (4440; Essen Bioscience). […] 8h after addition the real-time imaging was initiated and every 30 min a grid of 3×3 pictures was imaged. The imaging continued for another 6 days and the images were concatenated using Zen imaging software. […] After 6 days cell viability was determined as in FIG. 2C). […] Experiment as in FIG. 2C, but according to the indicated treatment plan. Instead of one single dose, three doses were given (one day in between) of ⅓ that concentration each time. […] Left: Experiment as in FIG. 2C, but on cells pretreated once daily for two days with IL-1α Receptor Antagonist (RA), which blocks IL-1α/β signaling, recombinant IL-6 and recombinant IL-1α/β. […] Right: Similar experiment as in the left panel, except viability measured one day earlier. […] In senescent cells p53 signaling causes upregulation of the cell-cycle arrest and pro-survival protein p21Cip1. […] Experiment as in FIG. 2K. […] Experiment as in FIG. 2c, but with control and senescent IMR90 stable transduced with shRNAs against p53 or a control shRNA (shGFP).
# A) Control IMR90 and IMR90 induced to senesce through 10Gy IR were plated in triplicate for each condition in a 96-well plate. […] After 6 days viability was determined through AqeousOne celltiter assay (Promega) according to the manufacturer's instructions.
# Non-senescent (=“normal”, proliferating) IMR90 cells (ATCC #CCL-186, a diploid primary human fibroblast adherent cell line derived from fetal lung tissue) were irradiated with 10Gy Gamma-IR (IR=irradiation). After 7 days these cells are senescent and can be used for experiments comparing them to their non-irradiated (=non-senescent) counterparts. Senescent and non-senescent IMR90 fibroblasts were plated for longitudinal cell density measurement using the xCELLigence system (ACEA Biosciences, Inc., San Diego, Calif.).
# (§1) 5000 senescent (obtained as described above) and 2000 non-senescent IMR90 fibroblasts were plated in 96-well plates incubated with concentrations of NQDI between 0-20 μM and after 6 days cell viability was determined by AqueousOne CellTiter (MTT) assay according to the manufacturer's instructions.
# as §1, with “R406, ranging from 16, 32, 64 to 128 nM” for “NQDI between 0-20 μM”
# Normal human IMR90 fibroblasts were exposed to 10 Gy Ionizing Radiation or treated 3× (bidaily) with 0.5 μM Doxorubicin. Seven days later they were processed for SA-β-Gal staining to visualize senescent cells. […] DAPI was used as a counterstain to visualize nuclei. […] After 6 days the cell viability was determined using an AqueousOne Celltiter (MTT) assay according to the manufacturer's instructions.
# [2] = tested on: senescent and non-senescent IMR90 fibroblasts; experiment: Real-time cell density, xCELLigence, senescent and non-senescent IMR90 fibroblasts; format: cell-based, human; conditions: 2 μM on three consecutive days (24, 48 and 72 h)
# Procedure: Measurements continued for the indicated time-points. […] Experiment as in FIG. 2K.
# Cell density after time of plating was followed. […] NQDI is apparently rather safe even at high doses as as non-senescent cells are not affected by 20 uM NQDI.
# [3] = tested on: fast aging Xpd^TTD/TTD mice; experiment: Healthspan, organ function and blood parameters of fast aging Xpd^TTD/TTD and wildtype mice; format: in vivo, mouse; conditions: 5 mg/kg i.v. day 0, 2 and 4, end of experiment
molecule,measurement,setting,value
CC(C)(C)c1nc(-c2cccc(NS(=O)(=O)c3c(F)cccc3F)c2F)c(-c2ccnc(N)n2)s1 [Dabrafenib],"LOX-IMVI viability, agent on its own",LOX-IMVI; single agent,do not markedly affect LOX-IMVI viability
OO [H2O2],"LOX-IMVI viability, individually",LOX-IMVI; FOXO4 DRI or H2O2 alone,only marginally influenced LOX-IMVI viability
"CCOC(=O)c1c2c3c(cccc3[nH]c1=O)C(=O)c1ccccc1-2 [NQDI, 2,7-Dihydro-2,7-dioxo-3H-naphtho[1,2,3-de]quinoline-1-carboxylic acid ethyl ester]","% viability over Mock, senescent and non-senescent IMR90","[1]; 0-20 μM, 6 days","clearly reduces cell viability in senescent, but not non-senescent IMR90 fibroblasts"
same,effect on non-senescent cells at high dose,[1]; 20 uM,not affected
same,"cell density, sequential rounds",[2],enhance its effectivity towards senescent cell clearance
[dL][dT][dL][dR][dK][dE][dP][dA][dS][dE][dI][dA][dQ][dS][dI][dL][dE][dA][dY][dS][dQ][dN]G[dW][dA][dN][dR][dR][dS]GG[dK][dR][dP][dP][dP][dR][dR][dR][dQ][dR][dR][dK][dK][dR]G [FOXO4 DRI],toxicity to non-senescent cells,[1],proved to be safe to non-senescent cells
same,toxicity to the hematopoietic system (blood parameters),[3],does not induce toxicity to the hematopoietic system
